Test results from ChEMBL document CHEMBL5579832, “Design, synthesis, and biological evaluation of pyrido[2,3-d]pyrimidin-7(8H)-one derivatives as potent USP1 inhibitors” (Eur J Med Chem, 2024).
The source made the active and inactive calls. The calls are words filed in the database; no cut-off is given here.

Biological target: Ubiquitin carboxyl-terminal hydrolase 1/WD repeat-containing protein 48 (Homo sapiens) (UniProt O94782+Q8TAF3)
Assay: Inhibition of USP1/UAF1 in human Olaparib-resistant MDA-MB-436 cell assessed as increase in Ub-PCNA level at 20 nM incubated for 24 hrs by Western blot analysis
Format: cell-based

Q: `COc1ncnc(C2CC2)c1-c1ncc2ccc(=O)n(Cc3ccc(-c4nc(C(F)(F)F)cn4C(C)C)cc3)c2n1` was tested. Which inhibition did it give?
A: Active
